Measurements reported in patent publication US8618079B2, “Imidazo[1,2-a] pyridinyl bisphosphonates” (Isis Innovation Limited, priority 2008, dated 2013).

Legend:
[1] = Hydroxyapatite (HAP) affinity, chromatographic retention on HAP column; format: physicochemical; details: phosphate buffer gradient 1 mM to 1000 mM, pH 6.8, longer retention = higher mineral affinity
[2] = test system: Sprague Dawley rats; assay: Schenk model, in vivo bone resorption inhibition (tibial BMD); details: rat, subcutaneous once daily for 7 days; dose increasing proximal tibial BMD 20% over control
Experimental: The compounds were evaluated for in vivo bone resorption inhibition and mineralization inhibition in an animal model system known in the field of bone metabolism as the Schenk Model. The general principles of this model system are disclosed in Shinoda et al., Calcif. Tissue Int., 35: 87-99 (1983); and in Schenk et al., Calcif. Tissue Res. 11: 196-214 (1973), the disclosures of which are incorporated herein by reference in their entireties.
Animals: Weanling male Sprague Dawley rats (Charles River Breeding Laboratories, Raleigh, N.C.) approximately 6 weeks old with weights ranging between 120 and 150 grams were placed into groups based on body weight, with 6 animals per group. All groups received treatment by subcutaneous injection (SQ) once daily (QD) for 7 days.
Dose Solutions and Dosing Procedure: On day 0, all animals received an injection of 3% xylenol orange (90 mg/kg; Sigma) in normal saline, pH adjusted to 7.4. On day 4 all animals were given a subcutaneous injection of 1% Calcein (10 mg/kg, Sigma) in 0.9% NaCl solution to label the skeleton. The first treatment was on day 0, and the last treatment on day 6, with animals euthanized on day 7. Concentrations were based on dosing 0.2 ml/100 g body weight. Compounds were administered at doses ranging from 0.0001 to 1 mg P/kg/day for 7 days at semi-log doses. The dose range was based on the IC 50 in the FPPS inhibition assay, and on the affinity to hydroxyapatite (HAP Affinity). Three to seven doses were chosen per test compound. Adjustments in dosage based on changes in body weight were made on a daily basis.
Necropsy, Tissue Processing and Histomorphometry: On day 7 after the start of dosing, all animals were euthanized via exsanguination under gas anesthesia and/or CO2. The right tibia and femur were dissected free and placed in 70% ethyl alcohol. The proximal metaphysis of the right tibia was analyzed using dual energy x-ray analysis (DXA). This provides information on changes in both cortical and cancellous bone density. The primary end-point for this study was bone mineral density in the tibia measured using a Hologics QDR-4500 densitometer (Hologics, Inc). Statistical evaluation of data was made using parametric and non-parametric analysis of variance and Wilcoxon's rank sum test to determine a statistically significant effect compared to control animals.
The Schenk model provided data for in vivo bone resorption inhibition by the compounds, see Table 3. Bone mineral density (BMD) was assessed with a Hologics 4500A on a region of the proximal tibial metaphysic. Efficacy of each bisphosphonate was expressed as the percent change from the vehicle control group. The dose that increased bone mineral density (BMD) 20% greater than control was determined via a logistic dose response relationship (SAS), which estimates an efficacy value using all animals in the study, and identified as D20 for comparison of bisphosphonates across studies. (Lundy et al., J. Bone Min. Res. 22(Suppl 1): S443, (2007)). Data from compounds run in multiple studies was averaged.

[3] = target: T1, human farnesyl pyrophosphate synthase (FPPS) (Homo sapiens, UniProt P14324); assay: FPPS inhibition; format: biochemical; details: recombinant human FPPS; for IC50: after pre-incubation; for Ki: read-out: FPPS inhibition Ki (final inhibition constant)
T1 construct: made in house
T1 sequence (P14324 67-419 limits assumed): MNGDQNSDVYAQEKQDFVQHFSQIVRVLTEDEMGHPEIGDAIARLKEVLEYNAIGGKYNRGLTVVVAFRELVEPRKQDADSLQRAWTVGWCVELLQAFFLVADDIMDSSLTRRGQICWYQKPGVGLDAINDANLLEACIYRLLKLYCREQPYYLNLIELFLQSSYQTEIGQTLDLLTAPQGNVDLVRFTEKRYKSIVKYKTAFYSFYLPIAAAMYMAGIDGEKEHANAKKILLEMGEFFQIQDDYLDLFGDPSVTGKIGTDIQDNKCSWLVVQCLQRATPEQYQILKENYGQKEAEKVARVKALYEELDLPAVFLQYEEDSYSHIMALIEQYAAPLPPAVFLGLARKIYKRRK

[4] = test system: collagen induced arthritis (CIA) rat; assay: Collagen induced arthritis (CIA) rat model, bone resorption scores; format: in vivo
Experimental: The collagen induced arthritis (CIA) rat model is an in vivo model that provides for an evaluation of the inhibition of inflammation as well as inhibition of bone erosion. The study was performed according to the method of Bendele et al., Arthritis & Rheumatism, 43: 2648-2659 (2000), incorporated herein by reference in its entirety, with the exception that male animals were used instead of female animals.
Arthritis was induced in rats by injecting collagen on days 0 and 6. The bisphosphonate compound of Example 4 (1-fluoro-2-(imidazo-[1,2-α]pyridin-3-yl)-ethyl-bisphosphonic acid) was administered at four different dosages (1.57 μg/kg, 15.69 μg/kg, 156.9 μg/kg, and 523.0 μg/kg; n=10/group) by subcutaneous injection on day 0, and compared to vehicle control (n=10). An additional group was administered 10 mg/kg Enbrel® (n=10) on days 9, 12, and 15 as a positive control. The study was stopped on day 17 and the animals were evaluated for ankle thickness and paw weight, indices of inflammation. The ankle and knees were removed as one piece, placed in formalin, decalcified and processed for histology. Sections were stained with toluidine blue and graded for inflammation, pannus and cartilage degradation on a score of 0 (normal) to 5 (severe). Bone erosion was also scored in the ankle and knee on a 0-5 score.

Row | Compound | HAP Affinity Retention time [1] [min] | Schenk D20 (mg P/kg) 20% > BMD than control [2] [mg P/kg] | IC50 [3] [nM] | Ki [3] [nM] | ankle bone resorption score, dose response ([4]; single subcutaneous injection day 0, 1.57-523.0 μg/kg, scored day 17 (FIG. 9)) | knee bone resorption score, dose response ([4]; single subcutaneous injection day 0, 1.57-523.0 μg/kg, scored day 17 (FIG. 10)) | knee bone resorption score, decrease relative to vehicle ([4]; three highest dosage levels (15.69 μg/kg, 156.9 μg/kg and 523.0 μg/kg), p=0.05 (FIG. 10)) | ankle bone resorption score, decrease relative to vehicle ([4]; two highest dosage levels (156.9 μg/kg and 523.0 μg/kg), p=0.05 (FIG. 9))
1 | O=P(O)(O)C(O)(Cn1ccnc1)P(=O)(O)O [Zoledronate, reference compound] | 12.53 | 0.00008 |  |  |  |  |  | 
2 | O=P(O)(O)C(Cc1cnc2c(O)cccn12)P(=O)(O)O [compound 40, [2-(8-hydroxy-imidazo[1,2-α]pyridin-3-yl)-1-ethane]-bisphosphonic acid] | 5.3 |  | 893 | 151 |  |  |  | 
3 | CCc1nc2ccccn2c1CC(P(=O)(O)O)P(=O)(O)O [compound 75, [(2-ethyl-imidazo[1,2-α]pyridin-3-yl)-methyl]-bisphosphonic acid] | 4.83 |  | 27 | 2.5 |  |  |  | 
4 | Cc1ccn2c(CC(F)(P(=O)(O)O)P(=O)(O)O)cnc2c1 [compound 11, 1-fluoro-2-(7-methyl)-imidazo-[1,2-α]pyridin-3-yl-ethyl-bisphosphonic acid] | 6.2 | 0.002 | 60.3 | 9.6 |  |  |  | 
5 | O=P(O)(O)C(Cc1cnc2ccccn12)P(=O)(O)O [compound 80, 2-(imidazo-[1,2-α]pyridin-3-yl)-ethyl-bisphosphonic acid] | 6.6 | 0.0006 | 2.59 | 0.013 |  |  |  | 
6 | Cc1ccn2c(CC(P(=O)(O)O)P(=O)(O)O)cnc2c1 [compound 15, 2-(7-methyl)-imidazo-[1,2-α]pyridin-3-yl-ethyl-bisphosphonic acid] | 6.6 | 0.008 | 39.7 | 6.1 |  |  |  | 
7 | Cc1ccc2ncc(CC(P(=O)(O)O)P(=O)(O)O)n2c1 [compound 81, 2-(6-methylimidazo-[1,2-α]pyridin-3-yl)-ethyl-bisphosphonic acid] | 6.6 |  | 380 | 64 |  |  |  | 
8 | O=P(O)(O)C(O)(Cc1cnc2ccccn12)P(=O)(O)O [Minodronate, reference compound] | 10.33 | 0.0001 |  |  |  |  |  | 
9 | O=P(O)(O)C(Cc1cnc2ccc(F)cn12)P(=O)(O)O [compound 34, [2-(6-fluoro-imidazo[1,2-α]pyridin-3-yl)-ethyl]-bisphosphonic acid] | 6.3 |  | 106 | 17.5 |  |  |  | 
10 | NCCCC(O)(P(=O)(O)O)P(=O)(O)O [Alendronate, reference compound] |  | 0.0015 |  |  |  |  |  | 
11 | O=P(O)(O)C(O)(Cc1cccnc1)P(=O)(O)O [Risedronate, reference compound] | 9.97 | 0.00045 |  |  |  |  |  | 
12 | O=P(O)(O)C(F)(Cc1cnc2ccccn12)P(=O)(O)O [compound 23, 1-fluoro-2-(imidazo-[1,2-α]pyridin-3-yl)-ethyl-bisphosphonic acid] | 6.17 | 0.0003 | 2.46 | 0.014 | dose-dependent decrease in bone resorption | dose dependent decrease in bone resorption | statistically different | statistically different
